Experimental data published in US12011497B2, “Compounds, compositions containing same, and use thereof for promoting hair growth” (Molgenbio Co. Ltd., priority 2018, dated 2024).
In brackets after ≈: the same amount, converted by molar mass.

test system: CD4+ T cells; assay: in vitro T cell activity assay (CTV-stained CD4+ T cell proliferation, flow cytometry); type: cell-based; conditions: B6J mouse spleen CD4+ T cells activated with CD3/CD28 Dynabeads, 72 hours incubation, 0.01-1000 ng/mL, CTV intensity
Source text: The degrees of decreases in immunosuppressive activity of the nine novel compounds were identified by a known in vitro T cell activity assay (J. Immunol. 143:718-726, 1989).
CD4+ T cell division is an indicator of immune response. When CD4+ T cells stained with Cell Trace™ Violet (CTV) proliferate by immune responses, the amount of CTV of each cell decreases, and thus the degrees of immunosuppressive activity were identified using this as an indicator.
Single cells were isolated from spleen of 6- to 8-week-old B6J experimental mice, and CD4+ T cells were isolated using a MagniSort® Mouse CD4 T cell Enrichment Kit (eBioscience). CD4+ T cells were stained with a Cell Trace™ Violet (CTV) Cell Proliferation Kit (Molecular Probes), and FK506 or the nine novel compounds were added thereto in concentrations of 0.01 ng/mL, 0.1 ng/mL, 1 ng/mL, 10 ng/mL, 100 ng/mL, and 1000 ng/mL, respectively, followed by incubation for 72 hours. In order to activate T cells, Dynabeads® Mouse T-Activator CD3/CD28 (Gibco) was used. As a control, inactivated T cells were used. After incubation, CTV intensity was analyzed by flow cytometry.
Table 12 below and FIG. 55 show the degrees of T cell proliferation based on CTV intensities measured using a flow cytometer, indicating the degrees of immunosuppressive activity of FK506 and the nine novel compounds.

Compound | Immunosuppression IC50
CO[C@H]1C[C@@H](C)C/C(C)=C/[C@@H](C)C(=O)C[C@H](O)[C@@H](C)[C@@H](/C(C)=C/[C@@H]2CC[C@@H](O)[C@H](O)C2)OC(=O)[C@@H]2CCCCN2C(=O)C[C@]2(O)O[C@H]1[C@@H](OC)C[C@H]2C [9-deoxo-31-O-demethyl-FK523] | 3378 ng/mL
COC1CC(C=C(C)C2OC(=O)C3CCCCN3C(=O)CC3(O)OC(C(OC)CC(C)CC(C)=CC(C)C(=O)CC(O)C2C)C(OC)CC3C)CCC1O (stereo not drawn) [9-deoxo-FK523] | 1985 ng/mL
C=CC[C@@H]1/C=C(\C)C[C@H](C)C[C@H](OC)[C@H]2O[C@@](O)(CC(=O)N3CCCC[C@H]3C(=O)O[C@H](/C(C)=C/C3CC[C@@H](O)[C@H](OC)C3)[C@H](C)[C@H](O)CC1=O)[C@H](C)C[C@@H]2OC (stereo partly drawn) [9-deoxo-FK506, reference compound] | 0.513 ng/mL
CCC[C@@H]1/C=C(\C)C[C@H](C)C[C@H](OC)[C@H]2O[C@@](O)(C(=O)C(=O)N3CCCC[C@H]3C(=O)O[C@H](/C(C)=C/[C@@H]3CC[C@@H](O)[C@H](O)C3)[C@H](C)[C@@H](O)CC1=O)[C@H](C)C[C@@H]2OC [31-O-demethyl-36,37-dihydro-FK506] | 1.723 ng/mL
C=CCC1/C=C(\C)CC(C)CC(OC)C2OC(O)(C(=O)C(=O)N3CCCCC3C(=O)OC(/C(C)=C/C3CCC(O)C(O)C3)C(C)C(O)CC1=O)C(C)CC2OC (stereo not drawn) [31-O-demethyl-FK506, reference compound] | 0.246 ng/mL
CCCC1C=C(C)CC(C)CC(OC)C2OC(O)(CC(=O)N3CCCCC3C(=O)OC(C(C)=CC3CCC(O)C(OC)C3)C(C)C(O)CC1=O)C(C)CC2OC (stereo not drawn) [9-deoxo-36,37-dihydro-FK506] | 14.1 ng/mL
CC[C@@H]1/C=C(\C)C[C@H](C)C[C@H](OC)[C@H]2O[C@@](O)(CC(=O)N3CCCC[C@H]3C(=O)O[C@H](/C(C)=C/[C@@H]3CC[C@@H](O)[C@H](O)C3)[C@H](C)[C@@H](O)CC1=O)[C@H](C)C[C@@H]2OC [9-deoxo-31-O-demethyl-FK520] | 258.1 ng/mL
C=CC[C@@H]1/C=C(/C)C[C@H](C)C[C@H](OC)[C@H]2O[C@@](O)(CC(=O)N3CCCC[C@H]3C(=O)O[C@H](/C(C)=C/[C@@H]3CC[C@@H](O)[C@H](O)C3)[C@H](C)[C@@H](O)CC1=O)[C@H](C)C[C@@H]2OC [9-deoxo-31-O-demethyl-FK506, reference compound] | 15.09 ng/mL
9-deoxo-31-O-demethyl-prolyl-FK506 | 886.5 ng/mL
CC[C@@H]1/C=C(\C)C[C@H](C)C[C@H](OC)[C@H]2O[C@@](O)(C(=O)C(=O)N3CCCC[C@H]3C(=O)O[C@H](/C(C)=C/[C@@H]3CC[C@@H](O)[C@H](O)C3)[C@H](C)[C@@H](O)CC1=O)[C@H](C)C[C@@H]2OC [31-O-demethyl-FK520] | 3.273 ng/mL
CCC1C=C(C)CC(C)CC(OC)C2OC(O)(CC(=O)N3CCCCC3C(=O)OC(C(C)=CC3CCC(O)C(OC)C3)C(C)C(O)CC1=O)C(C)CC2OC (stereo not drawn) [9-deoxo-FK520] | 24.98 ng/mL
CCCC1C=C(C)CC(C)CC(OC)C2OC(O)(CC(=O)N3CCCCC3C(=O)OC(C(C)=CC3CCC(O)C(O)C3)C(C)C(O)CC1=O)C(C)CC2OC (stereo not drawn) [9-deoxo-31-O-demethyl-36,37-dihydro-FK506] | 45.87 ng/mL
9-deoxo-prolyl-FK506 [reference compound] | 268.3 ng/mL

same assay, conditions: B6J mouse spleen CD4+ T cells activated with CD3/CD28 Dynabeads, 72 hours incubation, 0.01-1000 ng/mL, CTV intensity; read-out: Immunosuppression IC50

Compound | IC50
C=CC[C@@H]1/C=C(\C)C[C@H](C)C[C@H](OC)[C@H]2O[C@@](O)(C(=O)C(=O)N3CCCC[C@H]3C(=O)O[C@H](/C(C)=C/[C@@H]3CC[C@@H](O)[C@H](OC)C3)[C@H](C)[C@@H](O)CC1=O)[C@H](C)C[C@@H]2OC [FK506, reference compound] | 0.027 ng/mL (≈ 0.0336 nM)

test system: vibrissae tissue of mice; assay: hair growth-promoting activity in cultured isolated mouse vibrissae; type: cell-based; conditions: histology of cultured treated vibrissae, FIG. 58
Procedure: Hair growth-promoting activity of the nine novel compounds of the present invention relative to that of the parent drug (FK506) was evaluated using vibrissae tissue of mice. The mouth and mouth tissue (whisker pad) around the mouth where thick hair grows were peeled off from each of 6- to 8-week-old experimental black mouse (C57BL/6 mouse) and treated with […] for a short time of several seconds. The treated mouth tissue was prepared in a state of being immersed in phosphate-buffered saline (PBS) supplemented with 1% penicillin/streptomycin (P/S) on ice. Surrounding subcutaneous fat tissue and connective tissue were removed using forceps and blades while observing the prepared mouth tissue using a dissecting microscope to expose vibrissae tissue. […] Based on the results, it was confirmed that the composition for promoting hair growth, including at least one of the nine novel compounds of the present invention as an active ingredient, had the effects on promoting hair growth as desired, and thus it was determined that the composition may be effectively used for preventing and treating hair loss.

Compound | expression of growth marker (Ki67) of cells compared to an untreated group
CC[C@@H]1/C=C(\C)C[C@H](C)C[C@H](OC)[C@H]2O[C@@](O)(CC(=O)N3CCCC[C@H]3C(=O)O[C@H](/C(C)=C/[C@@H]3CC[C@@H](O)[C@H](O)C3)[C@H](C)[C@@H](O)CC1=O)[C@H](C)C[C@@H]2OC [9-deoxo-31-O-demethyl-FK520] | overexpressed
